# Measured values taken from patent US20060258598A1, “Alpha-keto carbonyl calpain inhibitors” (priority 2003, published 2006).
# Columns and labels:
# [1] = system: cellular calpains in C2C12 myoblasts; test: Calpain inhibition assay in C2C12 myoblasts; format: cell-based; details: 2 h incubation, calcium ionophore Br-A-23187, read-out: Calp I IC50 Myoblast
# Procedure: Calpain Inhibition Assay in C2C12 Myoblasts
# This assay is aimed at monitoring the ability of the substance to inhibit cellular calpains. C2C12 myoblasts are grown in 96-well plates in growth medium (DMEM, 20% foetal calf serum) until they reach confluency. The growth medium is then replaced by fusion medium (DMEM, 5% horse serum). 24 hours later the fusion medium is replaced by fusion medium containing the test substances dissolved in 1 μl DMSO. After 2 hours of incubation at 37° C. the cells are loaded with the calpain fluorogenic substrate Suc-Leu-Tyr-AMC at 400 μM in 50 μl of a reaction buffer containing 135 mM NaCl; 5 mM KCl; 4 mM CaCl2; 1 mM MgCl2; 10 mM Glucose; 10 mM HEPES pH 7.25 for 20 min at room temperature. The calcium influx, necessary to activate the cellular calpains, is evoked by the addition of 50 μl reaction buffer containing 20 μM of the calcium ionophore Br-A-23187 (Molecular Probes). The fluorescence of the cleavage product AMC is measured as described above during 60 min at 37° C. at intervals of 1 min. The IC50 values are determined as described above. Comparison of the IC50 determined in the enzymatic calpain inhibition assay to the IC50 determined in the C2C12 myoblasts calpain inhibiton assay, allows to evaluate the cellular uptake or the membrane permeability of the substance.
# human μ-calpain = molecular target: T1, human μ-calpain (Homo sapiens, UniProt P07384); test: Enzymatic calpain inhibition assay; format: biochemical; details: substrate Suc-Leu-Tyr-AMC, read-out: Calp I IC50
# T1 construct: purchased Calbiochem
# T1 sequence (P07384 1-714): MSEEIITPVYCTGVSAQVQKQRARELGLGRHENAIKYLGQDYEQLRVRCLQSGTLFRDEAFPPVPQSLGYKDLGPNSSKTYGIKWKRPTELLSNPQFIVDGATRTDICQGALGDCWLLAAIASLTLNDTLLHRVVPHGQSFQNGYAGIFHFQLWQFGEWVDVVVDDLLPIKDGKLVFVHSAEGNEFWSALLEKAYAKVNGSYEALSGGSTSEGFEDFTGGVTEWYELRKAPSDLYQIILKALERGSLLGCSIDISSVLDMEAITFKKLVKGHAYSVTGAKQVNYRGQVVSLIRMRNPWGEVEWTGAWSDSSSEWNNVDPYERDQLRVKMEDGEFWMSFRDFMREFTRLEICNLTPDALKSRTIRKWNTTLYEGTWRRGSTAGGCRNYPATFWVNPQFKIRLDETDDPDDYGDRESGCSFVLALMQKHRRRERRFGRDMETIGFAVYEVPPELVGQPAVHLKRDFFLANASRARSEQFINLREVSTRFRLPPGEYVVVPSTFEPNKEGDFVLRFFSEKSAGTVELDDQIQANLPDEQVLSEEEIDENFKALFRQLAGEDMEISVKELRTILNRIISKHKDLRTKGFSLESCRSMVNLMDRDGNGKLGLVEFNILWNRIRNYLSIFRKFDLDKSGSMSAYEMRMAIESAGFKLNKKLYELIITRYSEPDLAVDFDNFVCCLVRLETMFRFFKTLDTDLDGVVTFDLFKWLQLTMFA
# T1 sequence (P04632 1-268 partner): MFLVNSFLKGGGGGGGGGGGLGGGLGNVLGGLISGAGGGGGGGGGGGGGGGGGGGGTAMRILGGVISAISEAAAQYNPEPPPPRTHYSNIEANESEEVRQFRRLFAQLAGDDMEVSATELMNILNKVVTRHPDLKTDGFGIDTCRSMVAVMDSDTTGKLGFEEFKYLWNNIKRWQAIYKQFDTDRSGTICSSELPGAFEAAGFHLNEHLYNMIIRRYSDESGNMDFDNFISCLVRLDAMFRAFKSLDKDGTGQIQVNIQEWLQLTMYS
# Procedure: The Ki value was also determined in some cases. These criteria were used to measure the inhibitory effect of the compounds (I) on calpain I, calpain II and cathepsin B.
# Enzymatic Calpain Inhibition Assay
# The inhibitory properties of calpain inhibitors are tested in 100 μl of a buffer containing 100 mM imidazole pH 7.5, 5 mM L-Cystein-HCl, 5 mM CaCl2, 250 μM of the calpain fluorogenic substrate Suc-Leu-Tyr-AMC (Sigma) (Sasaki et al., J. Biol. Chem., 1984, 259, 12489-12949) dissolved in 2.5 μl DMSO and 0.5 μg of human μ-calpain (Calbiochem). The inhibitors dissolved in 1 μl DMSO are added to the reaction buffer. The fluorescence of the cleavage product 7-amino-4-methylcoumarin (AMC) is followed in a SPECTRAmax GEMINI XS (Molecular Device) fluorimeter at λex=360 nm and λem=440 nm at 30° C. during 30 min at intervals of 30 sec in 96-well plates (Greiner). The initial reaction velocity at different inhibitor concentrations is plotted against the inhibitor concentration and the IC50 values determined graphically.
# [2] = system: Primary fibroblasts from donors with Friedreich Ataxia (FRDA); test: BSO assay (cell viability under BSO-induced oxidative stress); format: cell-based, human; details: 24 h preincubation, 1 mM BSO; for EC50: Homo sapiens, Fibroblast
# Procedure: Primary fibroblasts were derived from donors with molecular diagnosis for Friedreich Ataxia (FRDA) and control donors with no mitochondrial disease. Cell lines were obtained from Coriell Cell Repositories (Camden, N.J.; catalog numbers GM04078, GM08402 and GM08399 respectively). All cell types were diagnosed on the molecular level for intronic […] triplet repeat length of at least 400-450 repeats using a PCR-based method. Experiments were carried out as described in the literature (M. L. Jauslin et al., Human Mol. Genet., 2002, 11, 3055-3063): Cells were seeded in microtiter plates at a density of 4'000 cells per 100 μl in growth medium consisting of 25% (v/v) M199 EBS and 64% (v/v) MEM EBS without phenol red (Bioconcept, Allschwil, Switzerland) supplemented with 10% (v/v) fetal calf serum (PAA Laboratories, Linz, Austria), 100 U/ml penicillin, 100 μg/ml streptomycin (PAA Laboratories, Linz, Austria), 10 μg/ml insulin (Sigma, Buchs, Switzerland), 10 ng/ml EGF (Sigma, Buchs, Switzerland), 10 ng/ml bFGF (PreproTech, Rocky Hill, N.J.) and 2 mM glutamine (Sigma, Buchs, Switzerland). The cells were incubated in the presence of various test compounds for 24 h before addition of L-buthionine-(S,R)-sulfoximine (BSO) to a final concentration of 1 mM. Cell viability was measured after the first signs of toxicity appeared in the BSO-treated controls (typically after 16 to 48 h). The cells were stained for 60 min at room temperature in PBS with 1.2 μM calcein AM and 4 μM ethidium homodimer (Live/Dead assay, Molecular Probes, Eugene, Oreg.). Fluorescence intensity was measured with a Gemini Spectramax XS spectrofluorimeter (Molecular Devices, Sunnyvale, Calif.) using excitation and emission wavelengths of 485 nm and 525 nm respectively.
SMILES,IC50 [1] [µM],IC50 (human μ-calpain) [µM],EC50 [2] [µM],BSO EC50 [2]
CCNC(=O)C(=O)[C@H](Cc1ccc(OC)cc1)NC(=O)[C@@H](NC(=O)c1ccc(NC(=O)CCCCC2CCSS2)cc1)C(C)C (stereo partly drawn) [Example 196],0.4,> 1,2,–
Cc1ccc(S(=O)(=O)CNC(=O)C(=O)[C@H](Cc2ccc(Cl)cc2)NC(=O)[C@H](CC(C)C)NC(=O)CCCCC2CCS[S+]2[O-])cc1 (stereo partly drawn) [Example 26],2,0.12,4,–
CCNC(=O)C(=O)[C@@H](NC(=O)[C@@H](NC(=O)CCCCC1CCSS1)C(C)C)c1ccccc1 (stereo partly drawn) [Example 153],2,0.4,2.5,–
CCNC(=O)C(=O)[C@H](Cc1ccc(Cl)cc1Cl)NC(=O)[C@H](CC(C)C)NC(=O)CCCCC1CCS[S+]1[O-] (stereo partly drawn) [Example 36],5,0.04,3,–
CCNC(=O)C(=O)[C@H](Cc1ccccc1)NC(=O)[C@@H](NC(=O)CNC(=O)CCCCC1CCSS1)C(C)C (stereo partly drawn) [Example 207],8,0.047,30,–
CCNC(=O)C(=O)[C@H](Cc1ccc(OC)cc1)NC(=O)[C@@H](NC(=O)C1(NC(=O)CCCCC2CCSS2)CC1)C(C)C (stereo partly drawn) [Example 192],3.2,0.37,1.5,–
CCNC(=O)C(=O)[C@H](Cc1ccc(OC)cc1)NC(=O)[C@@H](NC(=O)c1ccccc1NC(=O)CCCCC1CCS[S+]1[O-])C(C)C (stereo partly drawn) [Example 199],1.2,0.026,4,–
CCNC(=O)C(=O)[C@H](Cc1ccc(Cl)cc1)NC(=O)[C@@H](NC(=O)CCNC(=O)CCCCC1CCS[S+]1[O-])C(C)C (stereo partly drawn) [Example 173],40,0.2,25,–
Cc1ccc(S(=O)(=O)CNC(=O)C(=O)[C@H](Cc2ccc(Cl)cc2)NC(=O)[C@@H](NC(=O)CCCCC2CCSS2)C(C)C)cc1 (stereo partly drawn) [Example 13],0.5,0.2,1,–
CCNC(=O)C(=O)[C@H](Cc1cccc(C(F)(F)F)c1)NC(=O)[C@H](CC(C)C)NC(=O)CCCCC1CCS[S+]1[O-] (stereo partly drawn) [Example 129],4,0.05,2,–
CCNC(=O)C(=O)[C@H](Cc1ccc(C)cc1)NC(=O)[C@@H](NC(=O)CCCCC1CCS[S+]1[O-])C(C)C (stereo partly drawn) [Example 105],1,0.08,0.2,–
CCNC(=O)C(=O)[C@H](Cc1ccc(Br)cc1)NC(=O)[C@@H](NC(=O)CNC(=O)CCCCC1CCS[S+]1[O-])C(C)C (stereo partly drawn) [Example 184],5.5,0.1,10,–
CCNC(=O)C(=O)[C@H](Cc1ccc(Cl)cc1)NC(=O)[C@@H](NC(=O)CCCCC1CCS[S+]1[O-])C(C)C (stereo partly drawn) [Example 2],6,0.08,2,–
CCNC(=O)C(=O)[C@H](Cc1ccc(OC)cc1)NC(=O)[C@@H](NC(=O)CCCCC1CCS[S+]1[O-])C(C)C (stereo partly drawn) [Example 85],0.9,0.08,5,–

# Second part, led by results:
IC50 [1] [µM],IC50 (human μ-calpain) [µM],SMILES,EC50 [2] [µM],BSO EC50 [2]
5,0.12,CCNC(=O)C(=O)[C@H](Cc1ccc(C#N)cc1)NC(=O)[C@@H](NC(=O)CCCCC1CCSS1)C(C)C (stereo partly drawn) [Example 130],20,–
1.1,0.2,CCNC(=O)C(=O)[C@H](Cc1ccc(C(F)(F)F)cc1)NC(=O)[C@@H](NC(=O)CCCCC1CCSS1)C(C)C (stereo partly drawn) [Example 122],5,–
3.5,0.08,CCNC(=O)C(=O)[C@H](Cc1ccccc1)NC(=O)[C@@H](NC(=O)CCCCC1CCSS1)C(C)C (stereo partly drawn) [Example 138],10,–
20,0.1,CCNC(=O)C(=O)[C@H](Cc1ccccc1)NC(=O)[C@H](CC(C)C)NC(=O)CCCCC1CCS[S+]1[O-] (stereo partly drawn) [Example 142],3,–
2.5,0.04,CCNC(=O)C(=O)[C@H](Cc1ccc(Cl)cc1)NC(=O)[C@H](CC(C)C)NC(=O)CNC(=O)CCCCC1CCSS1 (stereo partly drawn) [Example 176],20,–
9,0.18,CCNC(=O)C(=O)[C@H](Cc1ccc(Br)cc1)NC(=O)[C@@H](NC(=O)CCCCC1CCSS1)C(C)CC (stereo partly drawn) [Example 74],3,–
2.5,0.03,CCNC(=O)C(=O)[C@H](Cc1ccc(Cl)c(Cl)c1)NC(=O)[C@H](CC(C)C)NC(=O)CCCCC1CCSS1 (stereo partly drawn) [Example 31],15,–
40,0.1,CCNC(=O)C(=O)[C@H](Cc1ccc(Cl)cc1Cl)NC(=O)[C@@H](NC(=O)CCCCC1CCSS1)C(C)C (stereo partly drawn) [Example 33],–,inactive
2.5,0.04,CCNC(=O)C(=O)[C@H](Cc1cccs1)NC(=O)[C@H](CC(C)C)NC(=O)CCCCC1CCSS1 (stereo partly drawn) [Example 147],1.5,–
15,0.1,CCNC(=O)C(=O)[C@H](Cc1cccc(C(F)(F)F)c1)NC(=O)[C@H](CC(C)C)NC(=O)CCCCC1CCSS1 (stereo partly drawn) [Example 128],20,–
